According to article PMC11091117, “A fluorescently-tagged tick kinin neuropeptide triggers peristalsis and labels tick midgut muscles” (Scientific Reports, 2024):
Entries after “also recorded” stand apart in the source; their conditions may differ.

Tests used:
[1] = test system: tick kinin receptor in midgut muscles; assay: Fluorescent labeling of live midgut ex vivo, confocal microscopy; format: binding, Rhipicephalus sanguineus; conditions: 10 µM labeled peptide, 1 min
Excerpt: Three peptides were used in this study. These included: 1) the ligand for the endogenous tick kinin receptor from Rhipicephalus sanguineus, Rhisa-kinin 8 peptide of sequence GTGEDQAFSPWGamide (Rhisa-K-8; RK8; of identical sequence to Rhimi-K-8 in Rhipicephalus microplus)[48], 2) the same peptide but fluorescently labeled at the N-terminus with tetramethylrhodamine (TMR) a red fluorescent dye, designated TMR-Rhisa-K-8 (TMR-RK8), and 3) a labeled peptide synthesized with the scrambled sequence of the kinin ligand, designated TMR-Scrambled. The sequence of TMR-RK8 was TMR-C-GTGEDQAFSPWGamide). The TMR-Scrambled kinin (TMR-C-GTQWGPGFEADSamide) served as a negative control for tissue labeling. All peptides were custom-synthesized and purchased from GenScript (Piscataway, NJ, USA) with a purity of ≥ 95% and the cysteine in bold in both sequences was added to attach the label. Experiments were replicated with independently synthesized batches (4 mg each) of labeled and unlabeled peptides, for reproducibility. Unlabeled RK8 was used as a competitive ligand to verify target-specific binding of the labeled TMR-RK8 (see Ligand Competition Assay). For cell assays, the peptide stock solutions (100 µM) were made in 1% dimethyl sulfoxide (DMSO) in Hank’s balanced salt solution (HBSS, Thermo Fisher, Waltham, USA). For fluorescent cell labeling, peptide working solutions (10 µM) were prepared in HBSS from stock solutions. For assays on the midgut, peptides were solubilized and diluted in a tick physiological saline consisting of 140 mM NaCl, 5 mM KCl, 1 mM MgCl2, 5 mM CaCl2, 4 mM NaHCO3, and 5 mM HEPES, pH 7.2[49].
(§1) Individual female ticks were immobilized on a Petri dish filled with wax by submerging their legs in melted wax heated with a soldering pencil (Electronic Control Soldering Station EC 1000, Weller, Apex, North Carolina, USA). Females were dissected under physiological saline following the protocol described by Tidwell et al.[51]. The tick was cut along the edge of the scutum/alloscutum using a stainless steel #12 scalpel blade (Integra Miltex, York, PA, USA), after which the scutum was removed with a pair of fine forceps. To expose the midgut for removal, the tracheae, Malpighian tubules, ovaries, rectal sac, and synganglion were removed with fine forceps in that order. The midgut was then carefully removed and placed into 200 µL of fresh tick saline (See Reagents and Peptides) on a single gasketed incubation chamber (500 µL, Size 22 × 40 mm, Electron Microscopy Sciences, Hatfield, PA). The midguts were then rinsed three times with the physiological tick saline for subsequent fluorescent labeling or activity experiments.
To determine the location of the tick kinin receptor in the midgut of ticks, a commercially synthesized Rhisa-kinin peptide 8[52] conjugated with a stable, red fluorophore (TMR-RK8) or a similarly labeled peptide of scrambled sequence (TMR-Scrambled) were applied to freshly dissected midguts ex vivo. For this, midguts of unfed adult females were incubated in ice-cold saline for 10 min. The saline was removed before incubation in 200 µL of 4’,6-diamidino-2-phenylindole dihydrochloride (DAPI, Sigma, 1 µg/mL in saline) for 1 min and rinsed with saline (200 µL) once. After saline removal, the midgut was incubated for 1 min with 200 µL of 10 µM of either TMR-Scrambled kinin or TMR-RK8, then the labeled peptide solution was removed by pipette and the midgut was rinsed twice with 200 µL saline. […]

[2] = test system: vector-only (V/O) CHO-K1 cells; assay: Confocal visualization on live vector-only cells with fluorescently labeled kinin peptide; format: binding; conditions: 10 µM labeled peptide, 1 min, HBSS, confocal Leica SP8
Excerpt: Three peptides were used in this study. These included: 1) the ligand for the endogenous tick kinin receptor from Rhipicephalus sanguineus, Rhisa-kinin 8 peptide of sequence GTGEDQAFSPWGamide (Rhisa-K-8; RK8; of identical sequence to Rhimi-K-8 in Rhipicephalus microplus)[48], 2) the same peptide but fluorescently labeled at the N-terminus with tetramethylrhodamine (TMR) a red fluorescent dye, designated TMR-Rhisa-K-8 (TMR-RK8), and 3) a labeled peptide synthesized with the scrambled sequence of the kinin ligand, designated TMR-Scrambled. The sequence of TMR-RK8 was TMR-C-GTGEDQAFSPWGamide). The TMR-Scrambled kinin (TMR-C-GTQWGPGFEADSamide) served as a negative control for tissue labeling. […]
The BMLK3 and V/O cells (5000–10,000 cells) were seeded separately in 200 µL selective media onto the two chambers of the cover glass (Lab-Tek Chambered Coverglass, 4.2 cm^2 area, #1.0 German borosilicate glass, sterile, Cat # 155,380, Thermo Fisher Scientific Inc., Walthams, MA) and grown in the incubator overnight at 37 °C and 5% CO2. The next day, cells would be ready for fluorescent labeling: the selective media was replaced with 200 µL HBSS to rinse the cells. […] Images were analyzed and computer-colored using Fiji/ImageJ (National Institutes of Health, Bethesda, MD). […]

[3] = test system: tick midgut; assay: Tick midgut contraction assay with EthoVision video analysis; design: species or system Rhipicephalus sanguineus
Excerpt: as §1
Midguts were dissected from immobilized female ticks under tick saline, as described under the Midgut Dissection. Ten different midguts were used for each of the two treatments, and ticks were of the same age and batch and had been maintained under the same conditions. Dissected midguts were placed individually into 200 µL of tick saline for 10 min at 28 °C on a gasketed glass coverslip (500 µL, Size 22 × 40 mm) serving as incubation chamber. […] After the final wash and removal of saline, 200 µL of saline were added, and a microscopy coverslip (24 × 60 mm, VWR, Radnor, PA) was placed over the gasketed portion of the incubation chamber, which height (0.5 mm) fits to prevent the midgut from floating, but still allows midgut peristalsis. The midguts were observed and filmed under a dissecting microscope (Olympus SZ61, Japan) equipped with an Infinity 5 camera (Teledyne Lumenera, Ottawa, ON, Canada). All videos were recorded for 1 min with the INFINITY ANALYZE 7 software (Teledyne Lumenera) at 30 frames/second with a 2464 × 2056 resolution. The field of view in all videos recorded represents 4 × 3.5 mm to capture the entire tick midguts under saline. All video files in Windows Media Video (.wmv) format obtained from the Infinity Analyze 7 software were converted to the MP4 format using CloudConvert (cloudconvert.com, Lunaweb, Munich, Germany) for analyses with the EthoVision XT 17 software (Noldus Information Technology, Wageningen, The Netherlands).
We used the EthoVision 17 XT software to quantify the “activity” (pixel change) of the midguts from the videos recorded. This software defines activity as the percentage of pixels that have changed in the entire defined arena between the current image and previous image. The videos are recorded in 2464 × 2056 resolution and the arena is set to be the entire video screen. Video files were uploaded into the program and analyzed starting from time zero to the end of the 60 s video. Detection settings for activity included the activity threshold which was set to 5 to achieve zero detection when the midgut was immobile. Although the video captured 30 frames (images) per s, for the video analysis we chose a “sample rate” of 7 samples /s, with sample rate being the number of images from the video the EthoVision program analyzes per second. To calculate activity, each pixel of the video image was compared from one image to the next, and the proportion of pixel changes was calculated by dividing the number of pixels changed from one image to the next by the total number of pixels in the image. Care was given for the midgut to occupy most of the arena, as the activity analyses will reflect the midgut movement as a proportion of the total arena. Midgut activity is observed as pixel changes, which are represented by the red-colored pixels in the S4 video. The mean pixel change per midgut was then determined by averaging the pixel changes from all samples within the recording period. […]

For TMR-C-GTQWGPGFEADSamide [TMR-Scrambled], the “non-specific labeling below midgut surface (in words)” value ([1]; midguts ex vivo, Z-slices under the surface) was “non-specific aggregation in lipid vesicles beneath the midgut surface; also recorded: non-specific labeling observed in lipid vesicles inside the midgut”, the “labeling of midgut surface muscles (in words)” value ([1]; tick saline pH 7.2, midguts of unfed females ex vivo, DAPI and Alexa 488-phalloidin, confocal 20X/40X) was “did not significantly bind to the surface of the tick midgut; also recorded: did not show specific binding to the midgut of ticks; also recorded: specific muscle surface staining was not observed; also recorded: No signal; also recorded: grid-like fluorescent pattern was not observed” and the “labeling of vector-only cells (in words)” value [2] was “not labeled by either peptide”. The “midgut contractions, S5 Video (in words)” value ([3]; 1 µM TMR-Scrambled, after 10 min of exposure, 4X speed) was “did not induce contractions”, the “midgut peristalsis/contractions (in words)” value ([3]; 10 µM, 1 min, 28 °C, midguts of unfed females ex vivo, video recorded 1 min) was “did not elicit peristalsis; also recorded: low to imperceptible activity; also recorded: did not display significant activity” and the “mean activity (mean pixel change, percentage of pixels changed in arena)” value ([3]; 10 µM, 1 min, rinsed twice, 28 °C, tick saline, 60 s video, 7 samples/s, EthoVision XT 17, activity threshold 5, N = 10 midguts) was “less than 0.1%”.
